Common to all, as to assay type: cell-based
One experiment has as its target T1, Human PPARα (Homo sapiens, UniProt Q07869).
T1 construct: host or cells: proprietary non-human mammalian cells
T1 sequence (Q07869 1-468): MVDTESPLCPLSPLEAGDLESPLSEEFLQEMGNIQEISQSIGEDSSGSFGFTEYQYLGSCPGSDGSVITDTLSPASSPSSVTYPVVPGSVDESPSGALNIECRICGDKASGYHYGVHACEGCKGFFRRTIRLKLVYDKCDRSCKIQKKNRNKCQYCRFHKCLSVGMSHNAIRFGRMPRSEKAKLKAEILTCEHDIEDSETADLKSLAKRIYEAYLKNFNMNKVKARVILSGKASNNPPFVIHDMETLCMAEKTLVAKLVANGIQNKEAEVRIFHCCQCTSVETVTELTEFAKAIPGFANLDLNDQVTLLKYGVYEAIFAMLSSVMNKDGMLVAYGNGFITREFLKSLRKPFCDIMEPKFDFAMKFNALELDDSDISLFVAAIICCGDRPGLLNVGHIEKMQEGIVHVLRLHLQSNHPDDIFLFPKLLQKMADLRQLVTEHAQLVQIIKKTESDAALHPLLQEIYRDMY
Nature of the experiment: Human PPARα Reporter Assay (luciferase, Indigo Biosciences). Conditions: antagonist mode, reporter cells, overnight incubation. The procedure:
Human PPARα Reporter Assay The screening of test compounds for agonist or antagonist activities against human PPARα receptors was performed using a commercial kit, Human PPARα Reporter Assay System (Indigo Biosciences, Cat. #IB00111). This nuclear receptor assay system utilizes proprietary non-human mammalian cells engineered to provide constitutive, high-level expression of Human PPARα. Because these cells incorporate a PPARα-responsive luciferase reporter gene, quantifying expressed luciferase activity provides a sensitive surrogate measure of PPARα activity in the treated cells. The primary application of this reporter assay system is in the screening of test samples to quantify any functional activity, either agonist or antagonist, that they may exert against human PPARα. […] Briefly, reporter cells are dispensed into wells of the assay plate and then immediately dosed with test compounds. Following an overnight incubation, the treatment media is discarded and Luciferase Detection Reagent (LDR) is added. The intensity of light emission from the ensuing luciferase reaction provides a sensitive measure that is directly proportional to the relative level of PPARα activation in the reporter cells.

Another experiment deals with T2, human PPAR β/δ (Homo sapiens, UniProt Q03181).
T2 construct: host or cells: engineered reporter cells (analogous to the PPARα kit)
T2 sequence (Q03181 1-441): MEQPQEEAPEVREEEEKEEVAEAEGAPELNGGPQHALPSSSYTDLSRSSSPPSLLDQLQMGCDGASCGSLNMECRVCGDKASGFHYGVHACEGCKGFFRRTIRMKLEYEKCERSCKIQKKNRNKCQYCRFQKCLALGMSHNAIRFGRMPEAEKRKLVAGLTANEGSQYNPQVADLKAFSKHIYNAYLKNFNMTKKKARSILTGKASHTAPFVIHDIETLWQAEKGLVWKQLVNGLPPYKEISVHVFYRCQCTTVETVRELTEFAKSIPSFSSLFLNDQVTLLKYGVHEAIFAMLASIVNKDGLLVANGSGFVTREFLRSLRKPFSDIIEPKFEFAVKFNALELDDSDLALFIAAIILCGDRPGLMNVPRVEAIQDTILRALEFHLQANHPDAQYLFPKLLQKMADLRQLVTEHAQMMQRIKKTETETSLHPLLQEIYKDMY
Nature of the experiment: Human PPAR β/δ reporter assay (luciferase, Indigo Biosciences kit). The note with it: antagonist mode, agonist at ~EC80; read-out: PPARδ Luciferase IC50. Here is the method: (§1) Target Selectivity Assays
(§2) To determine species selectivity, a Mouse PPARα Reporter Assay System was used (Indigo Biosciences, Cat. #M00111). Activity of test compounds to antagonize or agonize other isoforms of human PPAR, for example β/δ and γ, were assessed using the corresponding kits from Indigo Biosciences (Cat. #IB00121 and #IB00101, respectively). In addition to PPAR activity, compounds were also screened for activity against other nuclear hormone receptors including Estrogen Receptor β, Glucocorticoid Receptor and Thyroid Receptor β using commercially available kits (Indigo Biosciences, Cat. #IB00411, IB00201 and IB01101, respectively). Each assay system from Indigo Biosciences uses technology analogous to the human PPARα kit, with the variance being that the cells used for each assay were engineered to over-express the receptor of interest. In addition, the appropriate receptor agonist (included with each kit) was used at ˜EC80 for assays in which antagonist potency was being assessed.

The target in the next experiment is T3, human PPAR γ (Homo sapiens, UniProt P37231).
T3 sequence (P37231 1-505): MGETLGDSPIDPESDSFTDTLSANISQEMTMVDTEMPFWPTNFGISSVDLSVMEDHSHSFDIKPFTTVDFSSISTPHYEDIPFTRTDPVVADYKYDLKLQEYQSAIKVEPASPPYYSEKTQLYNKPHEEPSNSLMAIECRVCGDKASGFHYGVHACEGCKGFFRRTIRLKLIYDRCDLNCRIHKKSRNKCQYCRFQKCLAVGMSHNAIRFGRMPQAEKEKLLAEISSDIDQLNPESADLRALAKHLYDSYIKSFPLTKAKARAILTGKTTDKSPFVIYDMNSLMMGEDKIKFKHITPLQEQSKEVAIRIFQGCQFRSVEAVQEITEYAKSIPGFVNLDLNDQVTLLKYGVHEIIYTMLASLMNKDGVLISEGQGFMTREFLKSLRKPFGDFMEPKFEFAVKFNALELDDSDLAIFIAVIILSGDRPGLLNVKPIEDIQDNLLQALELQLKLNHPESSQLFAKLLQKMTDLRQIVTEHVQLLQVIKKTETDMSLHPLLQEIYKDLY
The experiment in a line: Human PPARγ reporter assay (Indigo Biosciences kit). The procedure: as §1, §2

The mark [1] stands for this setting: antagonist mode, agonist at ~EC80, read-out: PPARγ.

The source of these data is patent US9776976B2, “Triazolone compounds and uses thereof” (Inception 2, Inc., priority 2013, dated 2017).

SMILES strings stand for the structures. Read-outs that look alike come from different tables or passages of the source.

Turning to `CCCn1c(CCCc2ccc(-c3ccc(OCC)c(CC(=O)O)c3)cc2)nn(-c2ccc(C(F)(F)F)cc2)c1=O` [Example 3, 2-(4-ethoxy-4′-(3-(5-oxo-4-propyl-1-(4-(trifluoromethyl)phenyl)-4,5-dihydro-1H-1,2,4-triazol-3-yl)propyl)-[1,1′-biphenyl]-3-yl)acetic acid], the IC50 amounted to 113 nM at Human PPARα, 474 nM at human PPAR β/δ and 50000 nM at human PPAR γ (setting [1]).

Turning to `CCOc1ccc(-c2ccc(CCCc3nn(-c4ccc(C(F)(F)F)cc4)c(=O)n3C3CCC(C)CC3)cc2)cc1CC(=O)O` (stereo not drawn) [Example 5], the IC50 against Human PPARα stood at 109 nM; on human PPAR β/δ, 125 nM; at human PPAR γ (setting [1]), 40000 nM.

For `CCOc1ccc(-c2ccc(CCCc3nn(-c4ccc(C(F)(F)F)cc4)c(=O)n3C3CCCC(C)C3)cc2)cc1CC(=O)O` (stereo not drawn) [Example 6], the IC50 on Human PPARα is 135 nM; at human PPAR β/δ it was 154 nM; on human PPAR γ (setting [1]) it was 18100 nM.

Consider `CCOc1ccc(-c2ccc(CCCc3nn(-c4ccc(C(F)(F)F)cc4)c(=O)n3C3CCCCC3C)cc2)cc1CC(=O)O` (stereo not drawn) [Example 7], for which the values for the IC50 against Human PPARα, on human PPAR β/δ and at human PPAR γ (setting [1]) were 324 nM, 220 nM and 19400 nM, respectively.

As for `CCOc1ccc(-c2ccc(CCCc3nn(-c4ccc(OC(F)(F)F)cc4)c(=O)n3C3CCCCC3)cc2)cc1CC(=O)O` [Example 8, 2-(4′-(3-(4-cyclohexyl-5-oxo-1-(4-(trifluoromethoxy)phenyl)-4,5-dihydro-1H-1,2,4-triazol-3-yl)propyl)-4-ethoxy-[1,1% biphenyl]-3-yl)acetic acid], the figures for the IC50 on Human PPARα, at human PPAR β/δ and on human PPAR γ (setting [1]) were 29 nM, 505 nM and 27100 nM, respectively.

For `CCOc1ccc(-c2ccc(CCCc3nn(-c4ccc(C(F)(F)F)cc4)c(=O)n3-c3ccccc3F)cc2C)cc1CC(=O)O` [Example 9, 2-(4-ethoxy-4′-(3-(4-(2-fluorophenyl)-5-oxo-1-(4-(trifluoromethyl)phenyl)-4,5-dihydro-1H-1,2,4-triazol-3-yl)propyl)-2′-methyl-[1,1% biphenyl]-3-yl)acetic acid], the IC50 against Human PPARα was determined as 250 nM; at human PPAR β/δ, 312 nM; at human PPAR γ (setting [1]) it was 39800 nM.

On to `Cc1cc(CCCc2nn(-c3ccc(C(F)(F)F)cc3)c(=O)n2-c2ccccc2F)ccc1-c1ccc(C(F)(F)F)c(C(=O)O)c1` [Example 10, 4′-(3-(4-(2-fluorophenyl)-5-oxo-1-(4-(trifluoromethyl)phenyl)-4,5-dihydro-1H-1,2,4-triazol-3-yl)propyl)-2′-methyl-(4-trifluoromethyl)-[1,1′-biphenyl-]-3-carboxylic acid], for which the values for the IC50 at Human PPARα, on human PPAR β/δ and at human PPAR γ (setting [1]) were 192 nM, 198 nM and 28100 nM, respectively.

In the case of `CCOc1ccc(-c2ccc(CCCc3nn(-c4ccc(C(F)(F)F)cc4)c(=O)n3-c3ccccc3F)cc2C)cc1C(=O)O` [Example 11, 4-ethoxy-4′-(3-(4-(2-fluorophenyl)-5-oxo-1-(4-(trifluoromethyl)phenyl)-4,5-dihydro-1H-1,2,4-triazol-3-yl)propyl)-2′-methyl-[1,1% biphenyl-]-3-carboxylic acid], the results for the IC50 on Human PPARα, on human PPAR β/δ and on human PPAR γ (setting [1]) were 42 nM, 124 nM and 24800 nM, respectively.

As for `CCCn1c(CCCc2ccc(-c3cccc(NS(=O)(=O)c4ccccc4)n3)cc2)nn(-c2ccc(C(F)(F)F)cc2)c1=O` [Example 13, N-(6-(4-(3-(5-oxo-4-propyl-1-(4-(trifluoromethyl)phenyl)-4,5-dihydro-1H-1,2,4-triazol-3-yl)propyl)phenyl)pyridin-2-yl)benzenesulfonamide], the IC50 against Human PPARα was 182 nM; on human PPAR β/δ, 1160 nM; at human PPAR γ (setting [1]), above 100000 nM.

On to `COc1ccc(-c2ccc(CCCc3nn(-c4ccc(C(F)(F)F)cc4)c(=O)n3C3CC3)cc2)cc1CC(=O)O` [Example 14, 2-(4′-(3-(4-cyclopropyl-5-oxo-1-(4-(trifluoromethyl)phenyl)-4,5-dihydro-1H-1,2,4-triazol-3-yl)propyl)-4-methoxy-[1,1′-biphenyl]-3-yl)acetic acid], for which the IC50 came out at 108 nM against Human PPARα, 697 nM at human PPAR β/δ and 53100 nM on human PPAR γ (setting [1]).

For `COc1ccc(-c2ccc(CCCc3nn(-c4ccc(C(F)(F)F)cc4)c(=O)n3Cc3ccccc3F)cc2)cc1CC(=O)O` [Example 15, 2-(4′-(3-(4-(2-fluorobenzyl)-5-oxo-1-(4-(trifluoromethyl)phenyl)-4,5-dihydro-1H-1,2,4-triazol-3-yl)propyl)-4-methoxy-[1,1′-biphenyl]-3-yl)acetic acid], the IC50 against Human PPARα was 38800 nM; at human PPAR β/δ, 8360 nM; at human PPAR γ (setting [1]) it was above 100000 nM.

For the compound `CCCOc1ccc(-c2ccc(CCCc3nn(-c4ccc(C(F)(F)F)cc4)c(=O)n3C3CC3)cc2)cc1CC(=O)O` [Example 17, 2-(4′-(3-(4-cyclopropyl-5-oxo-1-(4-(trifluoromethyl)phenyl)-4,5-dihydro-1H-1,2,4-triazol-3-yl)propyl)-4-propoxy-[1,1′-biphenyl-]-3-yl)acetic acid], the IC50 against Human PPARα turned out to be 43 nM; at human PPAR β/δ, 485 nM; on human PPAR γ (setting [1]) it was 30700 nM.

Consider `CCOc1ccc(-c2ccc(CCCc3nn(-c4ccc(C(F)(F)F)cc4)c(=O)n3-c3ccccc3Cl)cc2)cc1CC(=O)O` [Example 19], for which the values for the IC50 against Human PPARα, on human PPAR β/δ and on human PPAR γ (setting [1]) were 31 nM, 32 nM and 22300 nM, respectively.

As to `CCOc1ccc(-c2ccc(CCCc3nn(-c4ccc(C(F)(F)F)cc4)c(=O)n3CC(C)C)cc2)cc1CC(=O)O` [Example 20], the figures for the IC50 against Human PPARα, at human PPAR β/δ and at human PPAR γ (setting [1]) were 150 nM, 363 nM and 32900 nM, respectively.

`CCOc1ccc(-c2ccc(CCCc3nn(-c4ccc(C(F)(F)F)cc4)c(=O)n3-c3ccccc3OC)cc2)cc1CC(=O)O` [Example 26] registered an IC50 against human PPAR γ of 14900 nM.

On to `CCOc1ccc(-c2ccc(CCCc3nn(-c4ccc(C(F)(F)F)cc4)c(=O)n3-c3ccccc3F)cc2)cc1C(=O)O` [Example 32, 4-ethoxy-4′-(3-(4-(2-fluorophenyl)-5-oxo-1-(4-(trifluoromethyl)phenyl)-4,5-dihydro-1H-1,2,4-triazol-3-yl)propyl)-[1,1′-biphenyl]-3-carboxylic acid], for which, on human PPAR γ (setting [1]), the IC50 amounted to 63200 nM.

Consider `CCOc1ccc(-c2ccc(CCCc3nn(-c4ccccc4F)c(=O)n3-c3ccc(C(F)(F)F)cc3)cc2)cc1CC(=O)O` [Example 36, 2-(4-ethoxy-4′-(3-(1-(2-fluorophenyl)-5-oxo-4-(4-(trifluoromethyl)phenyl)-4,5-dihydro-1H-1,2,4-triazol-3-yl)propyl)-[1,1′-biphenyl]-3-yl)acetic acid], for which the IC50 at human PPAR γ (setting [1]) is 79000 nM.
